Results: patent US10206907B2, “Compounds useful for the treatment of degenerative and inflammatory diseases” (GALAPAGOS NV, priority 2008, dated 2019)
Read-outs that look alike come from different tables or passages of the source.

Columns and labels:
[1] = biological target: Recombinant human JAK1 catalytic domain (Homo sapiens (Human), UniProt P23458); assay: JAK1 inhibition assay; format: biochemical
Outline: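 IC50 values come from dose-response series, with each point expressed as percent inhibition of cpm. Vehicle sets full activity and 10 μM staurosporine sets background. Incorporated radioactivity counted by scintillation after washing with 75 mM phosphoric acid.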

[2] = biological target: Recombinant human JAK2 catalytic domain (Homo sapiens (Human), UniProt O60674); assay: JAK2 inhibition assay; format: biochemical
Recombinant human JAK2 catalytic domain, sequence (O60674 808-1132): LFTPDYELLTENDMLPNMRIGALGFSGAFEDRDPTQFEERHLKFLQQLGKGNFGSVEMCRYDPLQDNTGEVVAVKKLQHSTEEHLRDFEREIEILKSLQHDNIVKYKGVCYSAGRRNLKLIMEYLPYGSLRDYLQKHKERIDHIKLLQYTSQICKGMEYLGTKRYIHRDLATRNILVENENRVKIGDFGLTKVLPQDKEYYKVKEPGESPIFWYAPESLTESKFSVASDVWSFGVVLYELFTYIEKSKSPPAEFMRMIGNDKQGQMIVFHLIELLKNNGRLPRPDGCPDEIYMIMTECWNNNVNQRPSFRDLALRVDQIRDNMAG
Outline: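 Activity was taken as vehicle cpm minus cpm with 10 μM staurosporine, and inhibition was expressed on that scale. Incubation was 90 min at 30 °C, followed by acid quench, phosphoric acid washes and Microscint counting. Compounds were tested as dose series to obtain IC50.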

[3] = biological target: Recombinant human JAK3 catalytic domain (Homo sapiens (Human), UniProt P52333); assay: JAK3 inhibition assay; format: biochemical; details: semi-quantitative score
Recombinant human JAK3 catalytic domain, sequence (P52333 781-1124): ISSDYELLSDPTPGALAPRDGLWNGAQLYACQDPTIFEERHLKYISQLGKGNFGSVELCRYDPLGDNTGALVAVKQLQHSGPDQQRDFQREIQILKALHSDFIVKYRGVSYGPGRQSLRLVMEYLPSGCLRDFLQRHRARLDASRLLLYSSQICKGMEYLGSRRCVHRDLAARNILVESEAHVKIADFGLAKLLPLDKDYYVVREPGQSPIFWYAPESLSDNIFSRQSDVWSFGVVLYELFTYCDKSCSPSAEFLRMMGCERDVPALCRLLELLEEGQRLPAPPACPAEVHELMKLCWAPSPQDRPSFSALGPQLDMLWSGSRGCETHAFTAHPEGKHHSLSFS

[4] = biological target: Recombinant human TYK2 catalytic domain (Homo sapiens (Human), UniProt P29597); assay: TYK2 inhibition assay; format: biochemical
Recombinant human TYK2 catalytic domain, sequence (P29597 871-1187): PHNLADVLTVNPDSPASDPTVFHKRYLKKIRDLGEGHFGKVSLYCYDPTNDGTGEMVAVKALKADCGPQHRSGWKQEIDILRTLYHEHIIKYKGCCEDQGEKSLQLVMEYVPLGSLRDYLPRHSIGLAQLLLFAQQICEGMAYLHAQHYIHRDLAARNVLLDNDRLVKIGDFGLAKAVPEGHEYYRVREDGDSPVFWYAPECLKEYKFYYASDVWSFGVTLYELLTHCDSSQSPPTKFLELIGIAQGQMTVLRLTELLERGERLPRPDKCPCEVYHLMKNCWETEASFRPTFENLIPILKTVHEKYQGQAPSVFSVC
Procedure: After 90 min at 30° C., reactions were stopped by adding of 25 μL/well of 150 mM phosphoric acid. […] Plates were washed 6 times with 300 μL per well of a 75 mM phosphoric acid solution and the bottom of the plates was sealed. 40 μL/well of Microscint-20 was added, the top of the plates was sealed and readout was performed using the Topcount (Perkin Elmer). Kinase activity was calculated by subtracting counts per minute (cpm) obtained in the presence of a positive control inhibitor (10 μM staurosporine) from cpm obtained in the presence of vehicle. The ability of a test compound to inhibit this activity was determined as: Percentage inhibition=((cpm determined for sample with test compound present−cpm determined for sample with positive control inhibitor) divided by (cpm determined in the presence of vehicle−cpm determined for sample with positive control inhibitor))*100%.
Dose dilution series were prepared for the compounds enabling the testing of dose-response effects in the TYK2 assay and the calculation of the IC50 for each compound.

[5] = system: JAK-STAT signalling in HeLa cells; assay: JAK-STAT signalling assay (OSM-triggered pSTAT1(2)-luciferase reporter in HeLa cells); format: cell-based; details: Homo sapiens; HeLa cells, OSM-triggered pSTAT1(2)-luciferase reporter; read-out: STAT signalling EC50
Outline: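 Read-out is oncostatin M–driven pSTAT1(2)-luciferase activity, corrected by co-transfected LacZ β-galactosidase, in transiently transfected HeLa cells cultured overnight at 37 °C, 10% CO2. Inhibition percentages against positive and negative controls were plotted across doses to derive EC50.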

[6] = system: MMP13 in SW1353 cells; assay: OSM/IL-1β signaling assay (MMP13 levels in SW1353 cells); format: cell-based; details: Homo sapiens; SW1353 cells, OSM and IL-1β triggered, MMP13 levels 48 hours after triggering; read-out: MMP13 EC50;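 note: secreted MMP13 captured by antibody, activated with APMA and its activity read by fluorescence, inhibition scaled between vehicle-treated triggered wells (0%) and untriggered wells (100%)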
[7] = Microsomal stability, human liver microsomes; format: in vitro ADME; details: percentage of compound remaining after 60 minutes, 3 μM compound
Outline: (§1)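 Percent parent remaining after 60 min was determined by LCMS against a time-zero sample quenched before microsome addition. Incubations ran at 37°C with liver microsomes and a G6PDH-based NADPH-regenerating cofactor mix. Quench was MeOH or ACN (1:1).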

[8] = Microsomal stability, rat liver microsomes; format: in vitro ADME; details: percentage of compound remaining after 60 minutes, 3 μM compound
Outline: as §1

[9] = Caco2 permeability (bi-directional); format: in vitro ADME, human; details: human, pH 7.4; for Papp A→B at 1 h, 10 µM: Caco-2, apical to basolateral, read-out: Papp (A2B); for efflux ratio at 1 h, 10 µM: Caco-2, ratio of PappB>A/PappA>B
Outline: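 Compound concentrations in both chambers were measured by LC-MS/MS after 1 h incubation at 37 °C on an orbital shaker. Efflux ratio is PappB>A over PappA>B. Lucifer Yellow (50 μM in donor) confirmed layer integrity, with permeability of ≤100 nm/s required.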

Recombinant human JAK1 catalytic domain, sequence (P23458 850-1154): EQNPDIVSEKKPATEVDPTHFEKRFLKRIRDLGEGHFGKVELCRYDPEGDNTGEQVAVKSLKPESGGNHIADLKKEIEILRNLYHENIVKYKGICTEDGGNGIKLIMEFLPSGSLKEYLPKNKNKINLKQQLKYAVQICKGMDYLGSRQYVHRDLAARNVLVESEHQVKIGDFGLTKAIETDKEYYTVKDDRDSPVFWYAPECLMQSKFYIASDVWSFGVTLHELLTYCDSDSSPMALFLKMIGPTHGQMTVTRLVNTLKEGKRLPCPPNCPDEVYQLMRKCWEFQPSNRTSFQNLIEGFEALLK

IC50 ([1]; semi-quantitative score) [µM] | IC50 ([2]; semi-quantitative score) [µM] | IC50 [3] [µM] | IC50 ([4]; semi-quantitative score) [µM] | EC50 [5] [µM] | EC50 [6] [µM] | Microsomal Stability Human (%) [7] | Microsomal Stability Rat (%) [8] | Papp A→B at 1 h, 10 µM [9] [×10⁻⁶ cm/s] | efflux ratio at 1 h, 10 µM [9] | Compound | IC50 [1] [µM] | IC50 [2] [µM] | IC50 [4] [µM]
< 0.1 | < 0.1 | > 1 | 0.501 to 1 | > 1 | > 1 | *** (*** 51-75) | **** (**** 76-100) | 3.03 | 11.9 | O=C(Nc1nc2cccc(-c3ccc(S(=O)(=O)NC4CC4)cc3)n2n1)C1CC1 [Compound 13, N-(5-(4-(N-cyclopropylsulfamoyl)phenyl)-[1,2,4]triazolo[1,5-a]pyridin-2-yl)cyclopropanecarboxamide] |  |  | 
< 0.1 | < 0.1 | 0.101 to 0.5 | > 1 | 0.101 to 0.5 | > 1 | ** (** 26-50) | * (* 0-25) |  | 0.91 | O=C(Nc1nc2cccc(-c3ccc(OCc4ccccc4)c(F)c3)n2n1)C1CC1 [Compound 15, N-(5-(4-(benzyloxy)-3-fluorophenyl)-[1,2,4]triazolo[1,5-a]pyridin-2-yl)cyclopropanecarboxamide] |  |  | 
< 0.1 | 0.101 to 0.5 | > 1 | 0.501 to 1 | > 1 | > 1 | **** (**** 76-100) | ** (** 26-50) | 11.4 | 2.97 | O=C(Nc1nc2cccc(-c3ccc(C(=O)N4CCCCC4)cc3)n2n1)C1CC1 [Compound 17] |  |  | 
< 0.1 | < 0.1 | 0.501 to 1 | 0.501 to 1 | 0.101 to 0.5 | 0.001 to 0.5 | * (* 0-25) | * (* 0-25) | 44.9 | 0.67 | O=C(Nc1nc2cccc(-c3ccc(OC4CCCC4)cc3)n2n1)C1CC1 [Compound 40, N-(5-(4-(cyclopentyloxy)phenyl)-[1,2,4]triazolo[1,5-a]pyridin-2-yl)cyclopropanecarboxamide] |  |  | 
< 0.1 | 0.101 to 0.5 | > 1 | > 1 | > 1 | > 1 | * (* 0-25) | * (* 0-25) |  |  | O=C(Nc1nc2cccc(-c3ccc(Oc4ccccc4)cc3)n2n1)C1CC1 [Compound 46, N-(5-(4-phenoxyphenyl)-[1,2,4]triazolo[1,5-a]pyridin-2-yl)cyclopropanecarboxamide] |  |  | 
< 0.1 | 0.101 to 0.5 | > 1 | > 1 | > 1 | > 1 | *** (*** 51-75) | *** (*** 51-75) | 28.8 | 1 | Cn1ccc(COc2ccc(-c3cccc4nc(NC(=O)C5CC5)nn34)cc2)n1 [Compound 48] |  |  | 
< 0.1 | 0.101 to 0.5 | > 1 | > 1 | > 1 | > 1 | * (* 0-25) | * (* 0-25) |  |  | Cc1noc(C)c1COc1ccc(-c2cccc3nc(NC(=O)C4CC4)nn23)cc1 [Compound 49, N-(5-(4-((3,5-dimethylisoxazol-4-yl)methoxy)phenyl)-[1,2,4]triazolo[1,5-a]pyridin-2-yl)cyclopropanecarboxamide] |  |  | 
< 0.1 | < 0.1 | 0.101 to 0.5 | > 1 | > 1 | > 1 | ** (** 26-50) | * (* 0-25) |  |  | Cc1cc(COc2ccc(-c3cccc4nc(NC(=O)C5CC5)nn34)cc2)n(C)n1 [Compound 50] |  |  | 
< 0.1 | < 0.1 | > 1 | 0.101 to 0.5 | > 1 | > 1 | **** (**** 76-100) | *** (*** 51-75) |  |  | O=C(Nc1nc2cccc(-c3ccc(NS(=O)(=O)c4ccccc4F)cc3)n2n1)C1CC1 [Compound 54, N-(5-(4-(2-fluorophenylsulfonamido)phenyl)-[1,2,4]triazolo[1,5-a]pyridin-2-yl)cyclopropanecarboxamide] |  |  | 
< 0.1 | 0.101 to 0.5 | > 1 | > 1 | > 1 | > 1 | **** (**** 76-100) | * (* 0-25) |  |  | O=C(NCc1ccccc1)c1ccc(-c2cccc3nc(NC(=O)C4CC4)nn23)cc1 [Compound 56, N-benzyl-4-(2-(cyclopropanecarboxamido)-[1,2,4]triazolo[1,5-a]pyridin-5-yl)benzamide] |  |  | 
< 0.1 | 0.101 to 0.5 | > 1 | > 1 | > 1 | 0.501 to 1 | * (* 0-25) | * (* 0-25) |  |  | O=C(Nc1nc2cccc(-c3ccc(C(=O)N4CCc5ccccc5C4)cc3)n2n1)C1CC1 [Compound 58] |  |  | 
< 0.1 | < 0.1 | 0.101 to 0.5 | > 1 | > 1 | > 1 | ** (** 26-50) | * (* 0-25) |  |  | Cc1cc(COc2ccc(-c3cccc4nc(NC(=O)C5CC5)nn34)cc2)nn1C [Compound 62] |  |  | 
< 0.1 | 0.101 to 0.5 | 0.501 to 1 | > 1 | > 1 | > 1 | *** (*** 51-75) | * (* 0-25) |  |  | O=C(COc1ccc(-c2cccc3nc(NC(=O)C4CC4)nn23)cc1)Nc1cccc(F)c1 [Compound 116, N-(5-(4-(2-(3-fluorophenylamino)-2-oxoethoxy)phenyl)-[1,2,4]triazolo[1,5-a]pyridin-2-yl)cyclopropanecarboxamide] |  |  | 
< 0.1 | 0.101 to 0.5 | > 1 | > 1 | > 1 | > 1 | * (* 0-25) | ** (** 26-50) |  |  | O=C(N[C@H]1CCN(Cc2ccccc2)C1)c1ccc(-c2cccc3nc(NC(=O)C4CC4)nn23)cc1 [Compound 119, (S)-N-(1-benzylpyrrolidin-3-yl)-4-(2-(cyclopropanecarboxamido)-[1,2,4]triazolo[1,5-a]pyridin-5-yl)benzamide] |  |  | 
< 0.1 | < 0.1 | 0.501 to 1 | > 1 | 0.501 to 1 | > 1 | * (* 0-25) | * (* 0-25) |  |  | O=C(Nc1nc2cccc(-c3ccc4c(ccn4Cc4ccccc4)c3)n2n1)C1CC1 [Compound 121, Cyclopropanecarboxylic Acid [5-(1-benzyl-1H-indol-5-yl)-[1,2,4]triazolo[1,5-a]pyridin-2-yl]-amide] |  |  | 
< 0.1 | < 0.1 | 0.101 to 0.5 | 0.101 to 0.5 | 0.101 to 0.5 |  | ** (** 26-50) | ** (** 26-50) | 4.1 | 11.5 | O=C(Nc1nc2cccc(-c3ccc(C(=O)N4CCC(O)(Cc5ccccc5)CC4)cc3)n2n1)C1CC1 [Compound 156, N-(5-(4-(4-benzyl-4-hydroxypiperidine-1-carbonyl)phenyl)-[1,2,4]triazolo[1,5-a]pyridin-2-yl)cyclopropanecarboxamide] |  |  | 

Compound | IC50 ([1]; semi-quantitative score) [µM] | IC50 ([2]; semi-quantitative score) [µM] | IC50 [3] [µM] | IC50 ([4]; semi-quantitative score) [µM] | EC50 [5] [µM] | EC50 [6] [µM] | Microsomal Stability Human (%) [7] | Microsomal Stability Rat (%) [8] | Papp A→B at 1 h, 10 µM [9] [×10⁻⁶ cm/s] | efflux ratio at 1 h, 10 µM [9] | IC50 [1] [µM] | IC50 [2] [µM] | IC50 [4] [µM]
O=C(Nc1nc2cccc(-c3ccc(OCc4ccccc4)nc3)n2n1)C1CC1 [Compound 57, Cyclopropanecarboxylic Acid [5-(6-benzyloxy-pyridin-3-yl)-[1,2,4]triazolo[1,5-a]pyridin-2-yl]-amide] |  |  | 0.501 to 1 |  | > 1 | > 1 | ** (** 26-50) | ** (** 26-50) |  |  | < 0.1 | < 0.1 | > 1
